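Five compound concentrations were applied to cells in 96-well plates for 48 hours; endpoints were derived by simple linear interpolation of the resulting dose-response curve. TGI: concentration producing complete growth inhibition.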
How the values were obtained:
Assay in all cases: NCI anticancer screen, dose series, 48 h
[1] = test system: SF-295 CNS
[2] = test system: ACHN renal
[3] = test system: DMS 114 small cell lung
[4] = test system: CAKI-1 renal
[5] = test system: 786-0 renal
[6] = test system: SK-MEL-5 melanoma
[7] = test system: NCI-H23 lung
[8] = test system: NCI-H460 lung
[9] = test system: UACC-257 melanoma
[10] = test system: SN12C renal
[11] = test system: KM12 colon
[12] = test system: OVCAR-3 ovarian
[13] = test system: COLO 205 colon
[14] = test system: HOP-62 NSCLC
[15] = test system: A498 renal
[16] = test system: RPMI-8226 leukemia
[17] = test system: KM20L2 colon
[18] = test system: MOLT-4 leukemia
[19] = test system: UO-31 renal
[20] = test system: MALME-3M melanoma
[21] = test system: M19-MEL melanoma
[22] = test system: SNB-19 CNS
[23] = test system: HCC-2998 colon
[24] = test system: A549 NSCLC
[25] = test system: OVCAR-5 ovarian
[26] = test system: OVCAR-8 ovarian
[27] = test system: EKVX NSCLC
[28] = test system: HOP-92 NSCLC
[29] = test system: HCT-116 colon
[30] = test system: HCT-15 colon
[31] = test system: SF-268 CNS
[32] = test system: OVCAR-4 ovarian
[33] = test system: SF-539 CNS
[34] = test system: XF 498 CNS
[35] = test system: SK-MEL-2 melanoma
[36] = test system: RXF 393 renal
[37] = test system: SNB-75 CNS
[38] = test system: IGROV1 ovarian
[39] = test system: K-562 leukemia
[40] = test system: DLD-1 colon
[41] = test system: M14 melanoma
[42] = test system: SK-OV-3 ovarian
[43] = test system: CCRF-CEM leukemia
[44] = test system: HT29 colon
[45] = test system: DMS 273 small cell lung
[46] = test system: LOX IMVI melanoma
[47] = test system: UACC-62 melanoma
[48] = test system: HOP-18 NSCLC
[49] = test system: SW-620 colon
[50] = test system: U251 CNS
[51] = test system: LXFL 529 NSCLC
[52] = test system: HL-60(TB) leukemia
[53] = test system: TK-10 renal
[54] = test system: SNB-78 CNS
[55] = test system: NCI-H522 lung
[56] = test system: RXF-631 renal
[57] = test system: SK-MEL-28 melanoma
[58] = test system: SR leukemia
[59] = test system: NCI-H226 lung

## O=S(=O)(O)C(F)(F)C(F)(F)C(F)(F)C(F)(F)F
[1]
  TGI: > 100 µM
[2]
  TGI: > 100 µM
[3]
  TGI: > 100 µM
[4]
  TGI: > 100 µM
[5]
  TGI: > 100 µM
[6]
  TGI: > 100 µM
[7]
  TGI: > 100 µM
[8]
  TGI: > 100 µM
[9]
  TGI: > 100 µM
[10]
  TGI: > 100 µM
[11]
  TGI: > 100 µM
[12]
  TGI: > 100 µM
[13]
  TGI: > 100 µM
[14]
  TGI: > 100 µM
[15]
  TGI: > 100 µM
[16]
  TGI: > 100 µM
[17]
  TGI: > 100 µM
[18]
  TGI: > 100 µM
[19]
  TGI: > 100 µM
[20]
  TGI: > 100 µM
[21]
  TGI: > 100 µM
[22]
  TGI: > 100 µM
[23]
  TGI: > 100 µM
[24]
  TGI: > 100 µM
[25]
  TGI: > 100 µM
[26]
  TGI: > 100 µM
[27]
  TGI: > 100 µM
[28]
  TGI: > 100 µM
[29]
  TGI: > 100 µM
[30]
  TGI: > 100 µM
[31]
  TGI: > 100 µM
[32]
  TGI: > 100 µM
[33]
  TGI: > 100 µM
[34]
  TGI: > 100 µM
[35]
  TGI: > 100 µM
[36]
  TGI: > 100 µM
[37]
  TGI: > 100 µM
[38]
  TGI: > 100 µM
[39]
  TGI: > 100 µM
[40]
  TGI: > 100 µM
[41]
  TGI: > 100 µM
[42]
  TGI: > 100 µM
[43]
  TGI: > 100 µM
[44]
  TGI: > 100 µM
[45]
  TGI: > 100 µM
[46]
  TGI: > 100 µM
[47]
  TGI: > 100 µM
[48]
  TGI: > 100 µM
[49]
  TGI: > 100 µM
[50]
  TGI: > 100 µM
[51]
  TGI: > 100 µM
[52]
  TGI: > 100 µM
[53]
  TGI: > 100 µM

## COc1ccc(C2(CN(C)C)COc3cc(OC)c(OC)cc3C2=O)cc1OC (stereo not drawn)
[1]
  TGI: > 100 µM
[2]
  TGI: > 100 µM
[3]
  TGI: 78.3 µM
[4]
  TGI: > 100 µM
[5]
  TGI: > 100 µM
[6]
  TGI: 60.7 µM
[7]
  TGI: 94.4 µM
[8]
  TGI: > 100 µM
[9]
  TGI: > 100 µM
[54]
  TGI: > 100 µM
[10]
  TGI: > 100 µM
[11]
  TGI: > 100 µM
[12]
  TGI: > 100 µM
[13]
  TGI: 76.2 µM
[55]
  TGI: > 100 µM
[56]
  TGI: > 100 µM
[14]
  TGI: > 100 µM
[15]
  TGI: > 100 µM
[16]
  TGI: 63.4 µM
[17]
  TGI: > 100 µM
[18]
  TGI: > 100 µM
[19]
  TGI: > 100 µM
[20]
  TGI: > 100 µM
[57]
  TGI: > 100 µM
[21]
  TGI: > 100 µM
[22]
  TGI: > 100 µM
[23]
  TGI: > 100 µM
[24]
  TGI: > 100 µM
[26]
  TGI: > 100 µM
[27]
  TGI: > 100 µM
[28]
  TGI: > 100 µM
[29]
  TGI: 30.3 µM
[31]
  TGI: > 100 µM
[32]
  TGI: > 100 µM
[33]
  TGI: > 100 µM
[34]
  TGI: > 100 µM
[36]
  TGI: 79.2 µM
[37]
  TGI: > 100 µM
[38]
  TGI: > 100 µM
[39]
  TGI: > 100 µM
[40]
  TGI: 44.6 µM
[41]
  TGI: > 100 µM
[42]
  TGI: > 100 µM
[43]
  TGI: 58.1 µM
[44]
  TGI: > 100 µM
[58]
  TGI: > 100 µM
[46]
  TGI: 31.1 µM
[47]
  TGI: > 100 µM
[48]
  TGI: > 100 µM
[49]
  TGI: 45.8 µM
[59]
  TGI: > 100 µM
[50]
  TGI: > 100 µM
[51]
  TGI: 48.8 µM
[52]
  TGI: 48.2 µM
[53]
  TGI: > 100 µM

— PubChem BioAssay (NCI)
